What was measured:
Format in all cases: in vivo
[1] = system: salty taste and/or umami taste; experiment: Sensory tests in chicken bouillon; settings: for taste description: 10 ppm in chicken bouillon (0.7% salt, 0.04% MSG)
Experimental: [10]-gingerdiol and [10]-gingerdioldiacetate were tested to evaluate their ability to enhance salty taste and/or umami taste in chicken bouillon (GVA-000589, 0.7% salt, 0.04% MSG, no pepper, with 0.08% Chicken Flexarome 880449 FBS42).
The sensory tests were evaluated for salt intensity, umami intensity, and liking intensity. The experiments were conducted in four designs, i.e. UNF (reference), Ericamide ((E)-3-(3,4-dimethoxyphenyl)-N-(4-methoxyphenethyl)acrylamide, FEMA 4877) at 10 ppm, [10]-gingerdiol at 10 ppm, and [10]-gingerdioldiacetate at 10 ppm.

[2] = system: salty taste and/or umami taste; experiment: Sensory tests in basic beef noodle seasoning; settings: 10 ppm in salt water, in comparison to 0.3% salt; FIG. 8
Experimental: [6]-gingerdiol, [8]-gingerdiol, and [10]-gingerdioldiacetate were tested to evaluate their abilities to enhance salty taste and/or umami taste in basic beef noodle seasoning (GVA-003129, no salt, no MSG; salt (−25%) 0.525% RTC, MSG 0.25% RTC; Corned Beef 589879 CB at 0.2% RTC).
The sensory tests were evaluated for salt intensity, umami intensity, bitter intensity and liking intensity. The experiments were conducts in four designs, i.e. salt at 0.3%, [6]-gingerdiol at 10 ppm in salt water, [8]-gingerdiol at 10 ppm in salt water, and [10]-gingerdioldiacetate at 10 ppm in salt water.

[3] = system: salty taste and/or umami taste; experiment: Sensory tests of the compounds of formula (I) and (III) in reference solutions (NaCl, MSG, KCl), with or without nose clip; settings: for enhancing effect for a salty or umami taste: references: 0.25% NaCl, 0.05% MSG, 0.25% KCl solution, FIGS. 1-6
Experimental: Sensory tests of the compounds of the present application were conducted. The compounds of formula (I) and (III) of the present application were tasted in sensory tests for their ability to enhance salty taste and/or umami taste in food products. The sensory tests were evaluated in four characters as saltiness, umami taste, saltiness in the presence of potassium chloride, and potassium chloride taste. The food products were evaluated with or without these compounds relevant to references (as indicated “With NC-Ref”, or “Without NC-Ref” in figures). The reference for saltiness was a 0.25% NaCl solution, the reference for umami was a 0.05% MSG solution, and the salty/bitter reference was a 0.25% KCl solution. The data was analyzed for statistical significances (indicated as * in the figures), such as levels of significance or graph of differences between means.
FIGS. 1-6 show the results of sensory tests for enhancing salty taste and/or umami taste using the compounds of formula (I) and (III) of the present application.

Row | SMILES | taste description [1] | bitter intensity [2] | liking intensity [2] | salt intensity [2] | umami intensity [2] | enhancing effect for a salty or umami taste [3] | enhancing salty taste and/or umami taste in food products ([3]; FIG. 4) | salt intensity ([1]; 10 ppm in chicken bouillon, vs UNF (reference), FIG. 9)
1 | COc1ccc(CCNC(=O)/C=C/c2ccc(OC)c(OC)c2)cc1 [Ericamide, (E)-3-(3,4-dimethoxyphenyl)-N-(4-methoxyphenethyl)acrylamide, reference compound] | chickeny, balanced, good mouthfeel and salty tastes |  |  |  |  |  |  | 
2 | CCCCC[C@H](O)C[C@H](O)CCc1ccc(O)c(OC)c1 [[6]-gingerdiol] |  | less bitter intensities | higher liking intensities | comparable salt intensities | higher umami intensities |  |  | 
3 | CCCCCCC[C@H](O)C[C@H](O)CCc1ccc(O)c(OC)c1 [[8]-gingerdiol] |  | less bitter intensities | higher liking intensities | comparable salt intensities | higher umami intensities | enhancing effect for a salty or umami taste |  | 
4 | CCCCCCC[C@@H](C[C@@H](CCc1ccc(O)c(OC)c1)OC(C)=O)OC(C)=O [[8]-gingerdioldiacetate] |  |  |  |  |  | enhancing effect for a salty or umami taste | unexpected and excellent results | 
5 | CCCCCCCCC[C@H](O)C[C@H](O)CCc1ccc(O)c(OC)c1 [[10]-gingerdiol] | less round, more salty, more acidic, chickeny balanced, coriander leaf, good and quite clean tastes |  |  |  |  | enhancing effect for a salty or umami taste |  | unexpected effects in enhancing the salt intensity
6 | CCCCCCCCC[C@@H](C[C@@H](CCc1ccc(O)c(OC)c1)OC(C)=O)OC(C)=O [[10]-gingerdioldiacetate] | strange, salty, solvent note, fruity, and some off tastes | less bitter intensities | higher liking intensities | higher salt intensity | higher umami intensities | enhancing effect for a salty or umami taste |  | 

— US20220273011A1, “GINGEROL COMPOUNDS AND THEIR USE AS FLAVOR MODIFIERS” (Firmenich SA, priority 2019, published 2022)
